# Reference: ChEMBL document CHEMBL5126669, “Discovery of 5,7-Dihydro-6H-pyrrolo[2,3-d]pyrimidin-6-ones as Highly Selective CDK2 Inhibitors” (ACS Med Chem Lett, 2022)
# Tests used:
# [1] = molecular target: Cyclin-dependent kinase 2/cyclin E1 (Homo sapiens, UniProt P24941); test: Inhibition of recombinant human N-terminal GST-tagged full-length CDK2/Flag-tagged cyclinE1 expressed in baculovirus expression system using eIF4E-binding protein-1 peptide as substrate incubated for 1 hr in presence of ATP by HTRF assay
# [2] = Inhibition of CDK1/cyclin B (unknown origin) in presence of ATP; set-up: species or system Homo sapiens
# Homo sapiens [3] = species on record: Homo sapiens; test: Selectivity ratio of IC50 for inhibition of CDK1/cyclin B (unknown origin) to IC50 for inhibition recombinant human N-terminal GST-tagged full-length CDK2/Flag-tagged cyclinE1 expressed in baculovirus expression system
# [4] = Intrinsic clearance in human liver microsomes at 1 uM measured upto 30 mins by LC/MS analysis; type: ADME, Microsome; conditions: read-out: CLH (converted)
# Homo sapiens [5] = species on record: Homo sapiens; test: Selectivity ratio of IC50 for inhibition of CDK4/cyclin D1 (unknown origin) to IC50 for inhibition recombinant human N-terminal GST-tagged full-length CDK2/Flag-tagged cyclinE1 expressed in baculovirus expression system
# Homo sapiens [6] = species on record: Homo sapiens; test: Selectivity ratio of IC50 for inhibition of CDK6/cyclin D1 (unknown origin) to IC50 for inhibition recombinant human N-terminal GST-tagged full-length CDK2/Flag-tagged cyclinE1 expressed in baculovirus expression system
# [7] = molecular target: Cyclin-dependent kinase 2 (Homo sapiens, UniProt P24941); test: Inhibition of CDK2 in human COV318 cells incubated for overnight in presence of human whole blood by HTRF assay; type: cell-based
# Homo sapiens [8] = species on record: Homo sapiens; test: Selectivity ratio of IC50 for inhibition of CDK1 in human OVCAR3 cells to IC50 for inhibition of CDK2 in human COV318 cells; type: cell-based
SMILES,IC50 [1] [nM],IC50 [2] [nM],Ratio IC50 (Homo sapiens [3]),predicted hepatic clearance at 1 µM [4] [mL/min/kg],Ratio IC50 (Homo sapiens [5]),Ratio IC50 (Homo sapiens [6]),IC50 [7] [nM],Ratio IC50 (Homo sapiens [8])
CC1(C)C(=O)N(C2CCCC2)c2nc(NC3CCN(S(C)(=O)=O)CC3)ncc21,87,> 5000,,,,,,
CS(=O)(=O)N1CCC(Nc2ncc3c(n2)N(c2ccccc2)C(=O)C32CC2)CC1,1610,,,,,,,
CC1(C)Cc2cnc(Nc3ccc(S(N)(=O)=O)cc3)nc2N(C2CCCC2)C1=O,5,170,,,,,,
CS(=O)(=O)N1CCC(Nc2ncc3c(n2)N(CC(F)F)C(=O)C32CC2)CC1,875,,,,,,,
CNS(=O)(=O)c1ccc(Nc2ncc3c(n2)N([C@@H](C)C2CC2)C(=O)C32CC2)cc1,1.6,,480,11.7,29,24,460,
CN1Cc2cnc(Nc3ccc(S(N)(=O)=O)cc3)nc2C(C)(C)C1=O,161,> 5000,,,,,,
C[C@@H]1CCC[C@H]1N1C(=O)C2(CC2)c2cnc(Nc3ccc(S(=O)(=O)N[C@@H]4CCCN(C)C4)cc3)nc21,0.32,,100,> 18.3,8,9,44,
Cn1cc(S(=O)(=O)N2CCC(Nc3ncc4c(n3)N(C3CCCC3)C(=O)C43CC3)CC2)cn1,17,1280,,,,,,75
CNS(=O)(=O)c1ccc(Nc2ncc3c(n2)N(c2cc(F)ccc2Cl)C(=O)C32CC2)cc1,0.62,,1900,15,58,120,460,
CS(=O)(=O)N1CCC(Nc2ncc3c(n2)N(C2CCOCC2)C(=O)C32CC2)CC1,2200,,,,,,,
CS(=O)(=O)N1CCC(Nc2ncc3c(n2)N(C2CCCC2)C(=O)C32CCC2)CC1,236,> 5000,,,,,,
